Measurements: article PMC3479105, “K-134, a Phosphodiesterase 3 Inhibitor, Prevents Brain Damage by Inhibiting Thrombus Formation in a Rat Cerebral Infarction Model” (PLoS ONE, 2012)
Like-named read-outs stand apart in the source and are kept apart here. Marks after values point to notes of the source that are not given here.

How the values were obtained:
[1] = Plasma concentration in rat arteriovenous shunt model; type: in vivo; conditions: SD, n = 6
Source text: (§1) Immediately after a single oral administration of the test compound, SD rats were anesthetized by subcutaneous injection of 1.2 g/kg of urethane (n = 12). Ninety minutes after oral administration of a single dose of K-134 or cilostazol, one end of a polyethylene catheter (size 3, 24 cm; Hibiki, Tokyo, Japan) filled with physiological saline was inserted into the left jugular vein, with the other end of the catheter inserted into the right common carotid artery to create a loop. The end of the catheter was removed from the jugular vein 4 h after creation of the loop. A thrombus was then regarded to have been formed when blood no longer ran from the catheter. […] The serum concentrations of K-134 and cilostazol were determined by high-performance liquid chromatography (HPLC).

[2] = tested on: arteriovenous shunt thrombus formation; assay: Arteriovenous shunt thrombosis model; type: in vivo, rat; conditions: for Occluded/Total: n = 12, control 11/12; for Occlusion (%): control 92; for ED50: Rattus norvegicus, rats, single oral dose 90 min before creation of the arteriovenous shunt, read-out: ED50, incidence of occlusive shunt thrombi
Source text: as §1

rat platelet aggregation = assay: Rat platelet aggregation in vitro (PRP, aggregometer); type: cell-based
Protocol: Platelet-rich plasma (PRP) was prepared by centrifugation (900 rpm, 15 min, at room temperature) of blood (05PR-22 centrifuge with a 03 rotor; Hitachi, Ltd., Tokyo, Japan), and the platelet count was adjusted to 5×10^5/µL with platelet-poor plasma prepared by centrifugation (3000 rpm, 10 min, at room temperature). PRP was incubated with antiplatelet agents at 37°C for 3 min and stimulated with collagen (final concentration, 15 µg/mL; MC Medical Inc., Tokyo, Japan) or adenosine diphosphate (ADP) (final concentration, 7.5 µM; MC Medical Inc.) (n = 5). Platelet aggregation was quantified by measuring the area under the curve (AUC) during the 5-min period after addition of trigger using a light transmittance aggregometer (PAM-8C; Mebanix Co., Ltd., Tokyo, Japan).

[3] = Electron spin resonance (ESR) radical scavenging; conditions: ESR experiments, data not shown
Source text: In the photothrombotic cerebral infarction model, photoactivation of rose bengal by illumination with green light results in reactive oxygen intermediates (predominantly singlet oxygen and superoxide). […] Therefore, we concluded that the observed inhibitory effects of K-134 on photothrombosis in this model are relevant to its antiplatelet activity but not radical scavenging activity.

PDE2 = tested on: PDE2; set-up: method as in PMID 10644042; conditions: read-out: IC50 toward PDE2; cited from earlier work
PDE3A = tested on: PDE3A; set-up: method as in PMID 10644042; conditions: read-out: IC50 toward PDE3A; cited from earlier work
PDE3B = tested on: PDE3B; set-up: method as in PMID 10644042; conditions: read-out: IC50 toward PDE3B; cited from earlier work
PDE4 = tested on: PDE4; set-up: method as in PMID 10644042; conditions: read-out: IC50 toward PDE4; cited from earlier work
PDE5 = tested on: PDE5; set-up: method as in PMID 10644042; conditions: read-out: IC50 toward PDE5; cited from earlier work
[4] = tested on: photothrombotic cerebral infarction model; assay: Infarct volume 24 h after photothrombotic MCA occlusion; type: in vivo, rat; conditions: for infarct volume: 24 h after MCA occlusion, control 131.4±18.9 mm^3; for bleeding in the cerebrum observed macroscopically: rats treated with K-134 and cilostazol in photothrombotic stroke model
Protocol: (§2) Brain infarction was produced by photothrombotic MCA occlusion essentially as reported previously. K-134 and cilostazol were administered to SD rats 2 h and 3 h before irradiation for MCA occlusion, respectively (n = 12), because K-134 reached plasma peak levels at 1–2 h, and cilostazol and its active metabolites (OPC-13015 and OPC-13213) reached at >3 h (Table S1) after oral administration in conscious male SD rats under fed conditions. Rats were anesthetized by intraperitoneal administration of 50 mg/kg of sodium pentobarbital (Kyoritsu Pharmaceutical Co., Ltd., Nara, Japan). Then, a polyethylene catheter for administration of rose bengal was placed in the left femoral vein. Rats were mounted on a brain stereotactic apparatus, and body temperature was maintained at 37°C with a heating pad. The left temporalis muscle was partially cut after incision of the scalp, and craniotomy was performed using a dental drill under an operating microscope. The fiber of a xenon lamp (Model L-4887; Hamamatsu Photonics Co., Ltd., Shizuoka, Japan) was placed on the MCA for irradiation (wavelength: 540 nm, 800000 lux), and the probe of the laser Doppler flow meter (ALF21R; Advance Co., Ltd., Tokyo, Japan) was placed on the MCA distal to the fiber. After 2 min of irradiation, rose bengal (25 mg/kg/mL; Sigma Aldrich Co., MO, USA) was injected for the next 2 min. The MCA was continuously irradiated for 8 min. Blood flow was measured for 18 min from the commencement of irradiation. The MCA occlusion time was determined from blood flow data. When blood flow continued beyond the observation period, the occlusion time was regarded as 16 min. After surgery, the incision site was closed with sutures, and rats were returned to their cages.
Twenty-four hours after MCA occlusion, rats were sacrificed by an overdose of pentobarbital and cutting an abdominal vein. The brain was immediately removed, cooled with cold spray (Pip Co., Ltd., Osaka, Japan), and cut into six slices (2 mm thick) using a slicer (RBSC-02; Neuro Science Inc., Tokyo, Japan) and razor (FA-10; Feather Razor, Co., Ltd., Osaka, Japan). The cutting base point (0 mm) was set at the position of bregma, and brains were cut at −2, −4, 0, +2, +4, +6, +8 mm from the base point. The brain slices were stained with 1% (w/v) 2,3,5-triphenyl-2H-tetrazolium chloride (TTC; Tokyo Chemical Industry Co., Ltd., Tokyo, Japan) in saline solution at 37°C for 20 min. The stained slices were photographed with a digital camera (CAMEDIA E-10; Olympus Co., Ltd., Tokyo, Japan). Whole brain areas and infarcted areas were quantified by image analysis (Win ROOF; Mitani Co., Ltd., Tokyo, Japan), and infarct volume were calculated with the trapezoidal rule.

[5] = tested on: photothrombotic middle cerebral artery (MCA) occlusion; assay: Photothrombotic MCA occlusion time in rat stroke model; type: in vivo; conditions: SD rats, n = 12, control 4.1±0.4 min
Protocol: as §2

[6] = set-up: method as in PMID 22269153; conditions: cited from earlier work
[7] = ADP 7.5 µM, n = 5, read-out: IC50, rat platelet aggregation induced by ADP
[8] = collagen 15 µg/mL, n = 5, read-out: IC50, rat platelet aggregation induced by collagen

SMILES	Inhibition (%) of arteriovenous shunt thrombus formation ([2]; 10 mg/kg single oral dose) [%]	Occluded/Total ([2]; 10 mg/kg single oral dose)	Occlusion (%) ([2]; 10 mg/kg single oral dose)	Inhibition (%) of arteriovenous shunt thrombus formation ([2]; 30 mg/kg single oral dose) [%]	Occluded/Total ([2]; 30 mg/kg single oral dose)	Occlusion (%) ([2]; 30 mg/kg single oral dose)	ED50 [2] [mg/kg]	IC50 (rat platelet aggregation; [7]) [µM]	IC50 (rat platelet aggregation; [8]) [µM]	scavenging activities against singlet oxygen and superoxide anion radical [3]	IC50 (PDE2) [µM]	IC50 (PDE3A) [µM]	IC50 (PDE3B) [µM]	IC50 (PDE4) [µM]	IC50 (PDE5) [µM]	bleeding in the cerebrum observed macroscopically [4]	other results
O=C1CCc2cc(OCCCCc3nnnn3C3CCCCC3)ccc2N1 [cilostazol]	37	7/12	58	64	4/12*	33	18	83	42	did not show scavenging activities	45.2	0.2	0.38	88	4.4	No bleeding	Cmax ([1]; 30 mg/kg oral): 2080 ± 280 nM; Inhibition (%) of arteriovenous shunt thrombus formation ([2]; 100 mg/kg single oral dose): 73%; Occluded/Total ([2]; 100 mg/kg single oral dose): 3/12**; Occlusion (%) ([2]; 100 mg/kg single oral dose): 25%; infarct volume ([4]; 300 mg/kg oral, not significant): 95.8±14.8 mm^3; MCA occlusion time ([5]; 300 mg/kg oral preadministration, not statistically significant): 6.9 ± 1.3 min
O=C(NCCCOc1ccc2[nH]c(=O)ccc2c1)N(C1CC1)[C@@H]1CCCC[C@H]1O [K-134]	64	4/12*	33	64	4/12*	33	11	3.2	2.5	did not show scavenging activities	> 300	0.1	0.28	> 300	12.1	No bleeding	Cmax ([1]; 10 mg/kg oral): 430 ± 80 nM; Inhibition (%) of arteriovenous shunt thrombus formation ([2]; 3 mg/kg single oral dose): 18%; Occluded/Total ([2]; 3 mg/kg single oral dose): 9/12; Occlusion (%) ([2]; 3 mg/kg single oral dose): 75%; infarct volume ([4]; 10 mg/kg oral, not significant): 92.0±14.7 mm^3; infarct volume ([4]; 30 mg/kg oral, significant): 62.1±12.9 mm^3; MCA occlusion time ([5]; 10 mg/kg oral preadministration, mean ± SEM): 7.9 ± 1.1 min; MCA occlusion time ([5]; 30 mg/kg oral preadministration, mean ± SEM): 9.1 ± 1.6 min; time to plasma peak levels ([6]; oral administration, conscious male SD rats under fed conditions): 1 to 2 h; half-life (T1/2) ([6]; rats, 10 mg/kg): about 2 h
